Data: patent publication US9193689B2, “3-aryl-5-substituted-isoquinolin-1-one compounds and their therapeutic use” (INSTITUTE OF CANCER RESEARCH: ROYAL CANCER HOSPITAL (THE), priority 2012, dated 2015)

Target: TNKS1 (Homo sapiens, UniProt O95271)
Test: TNKS1/PARP Biochemical Assay (TNKS1)

Row | IC50 [nM] | SMILES
1 | < 500 | Cc1cccc2c(=O)[nH]c(-c3ccc(S(=O)(=O)N(C4CC4)C4CCN(C)CC4)cc3)cc12 [IQ-119]
2 | < 20 | CNC1CN(Cc2ccc(-c3cc4c(C)cccc4c(=O)[nH]3)cc2)C1 [IQ-177]
3 | < 500 | CN(CC1CCN(C(=O)OC(C)(C)C)CC1)C(=O)c1ccc(-c2cc3c(Cl)cccc3c(=O)[nH]2)cc1 [IQ-145]
4 | < 20 | Cc1cc(F)cc2c(=O)[nH]c(-c3ccc(C(=O)N(C)CC4CCN(C)CC4)cc3)cc12 [IQ-208]
5 | < 500 | Cc1cccc2c(=O)[nH]c(-c3ccc(Cn4cnc5ccccc54)cc3)cc12 [IQ-181]
6 | < 20 | Cc1cccc2c(=O)[nH]c(-c3ccc(S(=O)(=O)N(C)CCO)cc3)cc12 [IQ-120]
7 | < 20 | Cc1cccc2c(=O)[nH]c(-c3ccc(CC(=O)N(C)C4CCN(C)CC4)cc3)cc12 [IQ-176]
8 | < 500 | CN1CCN(S(=O)(=O)c2ccc(-c3cc4c(Cl)cccc4c(=O)[nH]3)cc2)CC1 [IQ-122]
9 | < 500 | Cc1cc(F)cc2c(=O)[nH]c(-c3ccc(C(=O)N(C)C4CCNC4)cc3)cc12 (stereo not shown) [IQ-186]
10 | < 50 | Cc1cc(F)cc2c(=O)[nH]c(-c3ccc(C(=O)N(C)C4CCN(C)C4)cc3)cc12 (single isomer, unassigned) [IQ-207-1]
11 | < 50 | Cc1cc(F)cc2c(=O)[nH]c(-c3ccc(C(=O)N4CC(N(C)C)C4)cc3)cc12 [IQ-203]
12 | < 20 | Cc1cccc2c(=O)[nH]c(-c3ccc(C(=O)N(C)CC4(C)CCN(C)C4)cc3)cc12 (stereo not shown) [IQ-209]
13 | < 500 | CC(C)(C)OC(=O)N1CCN(c2ccc(-c3cc4c(Cl)cccc4c(=O)[nH]3)cn2)CC1 [IQ-136]
14 | < 50 | CN1CCN(Cc2ccc(-c3cc4c(C#CCO)cccc4c(=O)[nH]3)cc2)CC1 [IQ-231]
15 | < 20 | Cc1cccc2c(=O)[nH]c(-c3ccc(NC(CO)CO)nc3)cc12 [IQ-219]
16 | < 20 | Cc1cccc2c(=O)[nH]c(-c3ccc(C(=O)N(C)C4CCCN(C)C4)cc3)cc12 (stereo not shown) [IQ-211]
17 | < 50 | Cc1cc(F)cc2c(=O)[nH]c(-c3ccc(C(C)(C)C(=O)N4CC(O)C4)cc3)cc12 [IQ-218]

Row | IC50 [nM] | SMILES
18 | < 50 | Cc1cccc2c(=O)[nH]c(-c3ccc(CN4CCC(N(C)C)C4)cc3)cc12 (stereo not shown) [IQ-173]
19 | < 20 | Cc1cccc2c(=O)[nH]c(-c3ccc(S(=O)(=O)N4CCC(N(C)C)CC4)cc3)cc12 [IQ-125]
20 | < 20 | Cc1cccc2c(=O)[nH]c(-c3ccc(S(=O)(=O)N4CCNCC4)cc3)cc12 [IQ-123]
21 | < 500 | Cc1cccc2c(=O)[nH]c(-c3ccc(CN4CCN(C(=O)OC(C)(C)C)CC4C)cc3)cc12 (stereo not shown) [IQ-142]
22 | < 20 | Cc1ccc(F)c2c(=O)[nH]c(-c3ccc(C(=O)N4CCN(CCO)CC4)cc3)cc12 [IQ-193]
23 | < 500 | CN(C)C1CCN(S(=O)(=O)c2ccc(-c3cc4c(Cl)cccc4c(=O)[nH]3)cc2)CC1 [IQ-126]
24 | < 50 | Cc1cccc2c(=O)[nH]c(-c3ccc(CN4CC(O)C4)c(F)c3)cc12 [IQ-169]
25 | < 20 | CN1CCN(C(=O)c2ccc(-c3cc4c(F)cc(F)cc4c(=O)[nH]3)cc2)CC1 [IQ-227]
26 | < 20 | Cc1cc(F)cc2c(=O)[nH]c(-c3ccc(C(=O)N(C)C4CCN(C)C4)cc3)cc12 (stereo not shown) [IQ-197]
27 | < 20 | Cc1cc(F)cc2c(=O)[nH]c(-c3ccc(C(=O)N(C)C4CCNCC4)cc3)cc12 [IQ-213]
28 | < 20 | Cc1cccc2c(=O)[nH]c(-c3ccc(C(=O)N4CC(O)C4)cc3)cc12 [IQ-188]
29 | < 20 | Cc1cc(F)cc2c(=O)[nH]c(-c3ccc(C(=O)N(C)CC4(C)CCN(C)C4)cc3)cc12 (stereo not shown) [IQ-210]
30 | < 50 | Cc1cccc2c(=O)[nH]c(-c3ccc(C(=O)N(C)C4CCN(C(C)C)CC4)cc3)cc12 [IQ-206]
31 | < 20 | Cc1cccc2c(=O)[nH]c(-c3ccc(C(=O)N(C)C4CCN(C)C4)cc3)cc12 (stereo not shown) [IQ-196]
32 | < 50 | Cc1cccc2c(=O)[nH]c(-c3ccc(C(=O)N(C)C4CCN(C)C4)cc3)cc12 (single isomer, unassigned) [IQ-205-1]
33 | < 500 | Cc1cccc2c(=O)[nH]c(-c3ccc(CN4CCN(C(=O)OC(C)(C)C)C(C)C4)cc3)cc12 (stereo not shown) [IQ-143]

Second part, the molecule before the results:

Row | SMILES | IC50 [nM]
34 | Cc1cc(F)cc2c(=O)[nH]c(-c3ccc(CN4CCN(C(=O)OC(C)(C)C)CC4)cc3)cc12 [IQ-076] | < 500
35 | Cc1cccc2c(=O)[nH]c(-c3ccc(CN4C[C@@H]5CN(C(=O)OC(C)(C)C)C[C@@H]5C4)cc3)cc12 [IQ-089] | < 500
36 | Cc1cccc2c(=O)[nH]c(-c3ccc(CN4CCNCC4=O)cc3)cc12 [IQ-073] | < 50
37 | CC(C)(C)OC(=O)N1CCN(Cc2ccc(-c3cc4c(C5CC5)cccc4c(=O)[nH]3)cc2)CC1 [IQ-047] | < 500
38 | Cc1cccc2c(=O)[nH]c(-c3ccc(C(=O)N(C4CC4)C4CCN(C)CC4)cc3)cc12 [IQ-098] | < 50
39 | Cc1cccc2c(=O)[nH]c(-c3ccc(C(=O)N(C)CC4CCOCC4)cc3)cc12 [IQ-097, N-Methyl-4-(5-methyl-1-oxo-1,2-dihydro-isoquinolin-3-yl)-N-(tetrahydro-pyran-4-ylmethyl)-benzamide] | < 20
40 | Cc1cccc2c(=O)[nH]c(-c3ccc(CN4CCN(C(=O)OC(C)(C)C)CC4)cc3)cc12 [IQ-040] | < 500
41 | Cc1cccc2c(=O)[nH]c(-c3ccc(CN4CCCN(C)CC4)cc3)cc12 [IQ-065] | < 50
42 | CC(C)(C)OC(=O)N1CCN(Cc2ccc(-c3cc4c(F)ccc(F)c4c(=O)[nH]3)cc2)CC1 [IQ-077] | < 500
43 | Cc1cccc2c(=O)[nH]c(-c3ccc(CN4CCNCC4C)cc3)cc12 (stereo not shown) [IQ-051-1] | < 20
44 | CN1CCC(N(C)S(=O)(=O)c2ccc(-c3cc4c(Cl)cccc4c(=O)[nH]3)cc2)CC1 [IQ-110] | < 500
45 | Cc1cccc2c(=O)[nH]c(-c3ccc(CN4CCN5CCCC5C4)cc3)cc12 (stereo not shown) [IQ-087] | < 50
46 | O=c1[nH]c(-c2ccc(N3CCN(CCO)CC3)nc2)cc2c(Cl)cccc12 [IQ-012] | < 50
47 | Cc1cccc2c(=O)[nH]c(-c3ccc(C(=O)N(C)C4CCNCC4)cc3)cc12 [IQ-096, N-Methyl-4-(5-methyl-1-oxo-1,2-dihydro-isoquinolin-3-yl)-N-piperidin-4-yl-benzamide] | < 50
48 | Cc1cccc2c(=O)[nH]c(-c3ccc(CN4CCCN(C(=O)OC(C)(C)C)CC4)cc3)cc12 [IQ-060] | < 500
49 | Cc1cccc2c(=O)[nH]c(-c3ccc(S(=O)(=O)N(C)CCN(C)C)cc3)cc12 [IQ-117] | < 20
50 | Cc1cccc2c(=O)[nH]c(-c3ccc(CN4CCNCC4C)cc3)cc12 (single isomer, unassigned) [IQ-051-2] | < 50
51 | Cc1cccc2c(=O)[nH]c(-c3ccc(C(=O)N(C)C4CCN(C)CC4)nc3)cc12 [IQ-099] | < 20
52 | Cc1cccc2c(=O)[nH]c(-c3ccc(CN4CCCNCC4)cc3)cc12 [IQ-062] | < 20
53 | Cc1cccc2c(=O)[nH]c(-c3ccc(CN4CCN(C(=O)OC(C)(C)C)CC4)nc3)cc12 [IQ-071] | < 500

Row | SMILES | IC50 [nM]
54 | Cc1cccc2c(=O)[nH]c(-c3ccc(CN4CCNCC4)nc3)cc12 [IQ-072] | < 500
55 | CNCc1ccc(-c2cc3c(C)cccc3c(=O)[nH]2)cc1 [IQ-029] | < 20
56 | Cc1cccc2c(=O)[nH]c(-c3ccc(C(=O)N(C)CC4CCN(C(=O)OC(C)(C)C)CC4)cc3)cc12 [IQ-092, 4-({Methyl-[4-(5-methyl-1-oxo-1,2-dihydro-isoquinolin-3-yl)-benzoyl]-amino}-methyl)-piperidine-1-carboxylic acid tert-butyl ester] | < 500
57 | Cc1cccc2c(=O)[nH]c(-c3ccc(C(=O)N(C)CC4CCN(C)CC4)cc3)cc12 [IQ-095, N-Methyl-4-(5-methyl-1-oxo-1,2-dihydro-isoquinolin-3-yl)-N-(1-methyl-piperidin-4-ylmethyl)-benzamide] | < 50
58 | CN(CC1CCNCC1)S(=O)(=O)c1ccc(-c2cc3c(Cl)cccc3c(=O)[nH]2)cc1 [IQ-116] | < 50
59 | O=c1[nH]c(-c2ccc(CN3CCNCC3)cc2)cc2c(Cl)cccc12 [IQ-083] | < 50
60 | Cc1cccc2c(=O)[nH]c(-c3cnc(N4CCNCC4)nc3)cc12 [IQ-026] | < 50
61 | CN1CCN(C(=O)c2ccc(-c3cc4c(Cl)cccc4c(=O)[nH]3)cc2)CC1 [IQ-101] | < 50
62 | CN1CCC(CNC(=O)c2ccc(-c3cc4c(Cl)cccc4c(=O)[nH]3)cc2)CC1 [IQ-091, 4-(5-Chloro-1-oxo-1,2-dihydro-isoquinolin-3-yl)-N-(1-methyl-piperidin-4-ylmethyl)-benzamide] | < 500
63 | Cc1cccc2c(=O)[nH]c(-c3ccc(CC(=O)N4CCN(C)CC4)cc3)cc12 [IQ-175] | < 20
64 | Cc1cccc2c(=O)[nH]c(-c3ccc(CCN4CCOCC4)cc3)cc12 [IQ-042] | < 50
65 | Cc1cccc2c(=O)[nH]c(-c3ccc(S(=O)(=O)N(C)C4CCN(C)CC4)cc3)cc12 [IQ-109] | < 20
66 | Cc1cccc2c(=O)[nH]c(-c3ccc(CN4C[C@@H]5C[C@H]4CN5C(=O)OC(C)(C)C)cc3)cc12 [IQ-085] | < 50
67 | Cc1cccc2c(=O)[nH]c(-c3ccc(S(=O)(=O)N(C)CC4CCN(C(=O)OC(C)(C)C)CC4)cc3)cc12 [IQ-113] | < 500
68 | Cc1cccc2c(=O)[nH]c(-c3ccc(N4CCN(CCO)CC4)nc3)cc12 [IQ-011, 3-{6-[4-(2-Hydroxy-ethyl)-piperazin-1-yl]-pyridin-3-yl}-5-methyl-2H-isoquinolin-1-one] | < 20
69 | CC(=O)N1CCN(c2ccc(-c3cc4c(Cl)cccc4c(=O)[nH]3)cc2)CC1 [IQ-015] | < 50
70 | Cc1cccc2c(=O)[nH]c(-c3ccc(C(=O)N4CCN(C5CC5)CC4)cc3)cc12 [IQ-105] | < 50
71 | CN1CCN(c2ccc(-c3cc4c(Cl)cccc4c(=O)[nH]3)c[n+]2[O-])CC1 [IQ-002-2, 5-Chloro-3-[6-(4-methyl-piperazin-1-yl)-1-oxy-pyridin-3-yl]-2H-isoquinolin-1-one] | < 500
72 | Cc1cccc2c(=O)[nH]c(-c3ccc(C(C)(C)N4CCNCC4)cc3)cc12 [IQ-075, 5-Methyl-3-[(4-(1-methyl-1-piperazin-1-yl]-ethyl)-phenyl]-2H-isoquinolin-1-one] | < 500
73 | Cc1cccc2c(=O)[nH]c(-c3ccc(CN4CC(C)NC(C)C4)cc3)cc12 (stereo not shown) [IQ-063] | < 500
